# Data taken from PMC6952396, “Structural basis for itraconazole-mediated NPC1 inhibition” (Nature Communications, 2020).
# Assays:
# NPC1 [1] = molecular target: T1, NPC1 (Cricetulus griseus, UniProt Q9JLG3); test: Cholesterol re-esterification (ACAT) assay measuring NPC1-mediated export of cholesterol from lysosomes in CHO-7 cells; format: cell-based; details: for cholesteryl [14C] oleate formed, Repeat 1 / cholesteryl [14C] oleate formed, Repeat 2: Fig. 2 source data; for cholesteryl [14C] oleate formed, Repeat 3 / cholesteryl [14C] oleate formed, Repeat 4: Supplementary Fig. 3 source data
# T1 construct: CHO-7 cells in the medium are deprived of cholesterol to induce the LDL receptors biosynthesis; endogenous in cells; host or cells: CHO-7 cells
# T1 sequence (Q9JLG3 23-1277): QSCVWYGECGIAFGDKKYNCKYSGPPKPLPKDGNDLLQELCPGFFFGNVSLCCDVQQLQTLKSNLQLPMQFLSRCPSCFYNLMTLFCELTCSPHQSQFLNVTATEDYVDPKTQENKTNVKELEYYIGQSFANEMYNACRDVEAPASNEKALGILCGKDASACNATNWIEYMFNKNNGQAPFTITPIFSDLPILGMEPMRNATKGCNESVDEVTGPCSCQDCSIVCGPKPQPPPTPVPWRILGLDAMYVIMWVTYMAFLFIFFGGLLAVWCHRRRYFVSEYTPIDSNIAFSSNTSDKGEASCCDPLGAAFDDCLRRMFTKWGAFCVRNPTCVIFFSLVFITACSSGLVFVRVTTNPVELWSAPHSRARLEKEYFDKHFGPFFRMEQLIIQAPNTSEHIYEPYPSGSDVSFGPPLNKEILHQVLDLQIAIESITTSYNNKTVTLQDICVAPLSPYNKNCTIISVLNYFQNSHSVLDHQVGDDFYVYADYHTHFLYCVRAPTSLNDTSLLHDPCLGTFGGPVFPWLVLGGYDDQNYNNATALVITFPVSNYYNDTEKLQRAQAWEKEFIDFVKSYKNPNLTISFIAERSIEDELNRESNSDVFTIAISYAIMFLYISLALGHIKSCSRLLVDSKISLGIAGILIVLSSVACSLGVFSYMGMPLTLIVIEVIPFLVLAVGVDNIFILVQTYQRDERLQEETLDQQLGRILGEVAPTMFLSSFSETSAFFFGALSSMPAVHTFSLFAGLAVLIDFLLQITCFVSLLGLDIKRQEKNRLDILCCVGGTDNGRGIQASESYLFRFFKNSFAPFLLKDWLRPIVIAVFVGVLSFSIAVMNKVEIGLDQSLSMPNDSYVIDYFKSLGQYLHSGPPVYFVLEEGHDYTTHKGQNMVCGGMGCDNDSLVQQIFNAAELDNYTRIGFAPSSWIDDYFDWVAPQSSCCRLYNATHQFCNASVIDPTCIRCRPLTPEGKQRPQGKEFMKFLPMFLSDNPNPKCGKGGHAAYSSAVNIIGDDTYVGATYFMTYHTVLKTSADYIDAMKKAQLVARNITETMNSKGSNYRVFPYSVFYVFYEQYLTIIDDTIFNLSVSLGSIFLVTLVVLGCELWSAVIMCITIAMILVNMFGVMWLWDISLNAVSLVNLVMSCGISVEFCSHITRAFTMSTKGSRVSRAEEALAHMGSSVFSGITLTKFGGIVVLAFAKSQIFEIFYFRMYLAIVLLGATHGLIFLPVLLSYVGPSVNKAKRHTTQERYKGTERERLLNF
# Text: Itraconazole has three chiral centers (Supplementary Fig. 2a). The pharmaceutical form contains four cis-stereoisomers in a 1:1:1:1 molar ratio (Supplementary Fig. 2a–d). To determine the activity of the cis-stereoisomers, the individual isomers were isolated and identified based on their optical rotation in chloroform following a previous report (Supplementary Fig. 2e)[26]. Then, they were separately tested in a cholesterol re-esterification assay used to measure NPC1-mediated export of cholesterol from lysosomes. Briefly, CHO-7 cells in the medium are deprived of cholesterol to induce the LDL receptors biosynthesis. The cells are then incubated with fetal calf serum (FCS) that contains LDL. The LDL-derived cholesterol will now be transported by functional NPC1 protein from the lysosome to the endoplasmic reticulum (ER). The acyl-CoA:cholesterol actyltransferase named ACAT can now re-esterify the cholesterol in the ER. Therefore, the cells were pulse-labeled with [^14C] oleate and we can measure the synthesis of cholesteroyl [^14C] oleate to evaluate the activity of NPC1 protein. Using this assay, we tested the ability of various itraconazole to inhibit NPC1 activity.
# Fig. 2 ACAT activity of itraconazole and ketoconazole in CHO-7 cells. On day 0, CHO-7 cells were set up in medium A with 5% LPDS at 2.5 × 10^5 cells/well in 6-well dish. On day 2, cells were switched to medium A with 5% LPDS containing 50 µM sodium compactin and 50 µM sodium mevalonate. On day 3 the cells received fresh medium B containing compactin and mevalonate with various concentration compounds in the presence of 10% FCS containing lipoproteins. After incubation for 4 h at 37 °C, each cell monolayer was pulse-labeled for 2 h with 0.1 mM sodium [^14C] oleate (5792 dpm/nmol). The cells were then harvested for measurement of their content of cholesteryl [^14C] oleate and [^14C] triglycerides, as described in Methods. […] Itraconazole mixture, isomer A (Supplementary Fig. 2a), isomer B (Supplementary Fig. 2b) and isomer C (Supplementary Fig. 2c) were added at final concentrations of 0.3 μM. The isomer D (Supplementary Fig. 2d), I-Br and ketoconazole were added at final concentrations of 1 μM. The biological repeats are shown as individual values. Source data are provided as a Source Data file.
# On day 0, cells were set up in medium A with 5% LPDS at 2.5 × 10^5 cells/well in six-well dish. On day 2, cells were switched to medium A with 5% LPDS containing 50 µM sodium compactin and 50 µM sodium mevalonate. On day 3 the cells received fresh medium B containing compactin and mevalonate with indicated concentration triazole compounds in the presence of 10% FCS containing lipoproteins. After incubation for 4 h at 37 °C, each cell monolayer was pulse-labeled for 2 h with 0.1 mM sodium [^14C] oleate (5792 dpm/nmol). The cells were then harvested for measurement of their content of cholesteryl [^14C] oleate and [^14C] triglycerides.
# The rate of incorporation of [^14C] oleate into cholesteryl [^14C] oleate and [^14C] triglycerides by monolayers of NPC1^−/− cells and CHO-7 cells was measured as described previously. In brief, cells were switched to medium containing LPDS supplemented with compactin and mevolonate at 16 h before the experiments. On the day of the experiment, cells were incubated for 4 h with fresh medium containing FCS as a source of cholesterol-containing lipoproteins. Cells were then pulse –labeled for 2 h with 0.1 mM sodium [^14C] oleate. Cells were then washed, and the lipids were extracted in hexane:isopropanol (3:2, vol:vol), separated on a silica gel G thin-layer chromatogram (developed in heptane:ethylether:acetic acid, 90:30:1), and quantified by scintillation counting with the use of an internal standard for recovery.
# NPC1 [2] = molecular target: T1, NPC1; details: cultured cells; cited from earlier work
# [3] = test system: NPC1-mediated cholesterol export; details: cited from earlier work
smiles,measurement,setting,value
CCC(C)n1ncn(-c2ccc(N3CCN(c4ccc(OCC5COC(Cn6cncn6)(c6ccc(Cl)cc6Cl)O5)cc4)CC3)cc2)c1=O (stereo not drawn) [Itra-D],"cholesteryl [14C] oleate formed, Repeat 1",NPC1 [1]; 0.01 uM compound,5.124 nanomoles formed per hour per milligram cell protein
same,"cholesteryl [14C] oleate formed, Repeat 2",NPC1 [1]; 0.01 uM compound,4.829 nanomoles formed per hour per milligram cell protein
same,"cholesteryl [14C] oleate formed, Repeat 3",NPC1 [1]; 0.01 uM compound,5.364 nanomoles formed per hour per milligram cell protein
same,"cholesteryl [14C] oleate formed, Repeat 4",NPC1 [1]; 0.01 uM compound,5.55 nanomoles formed per hour per milligram cell protein
same,"cholesteryl [14C] oleate formed, Repeat 1",NPC1 [1]; 0.03 uM compound,5.201 nanomoles formed per hour per milligram cell protein
same,"cholesteryl [14C] oleate formed, Repeat 2",NPC1 [1]; 0.03 uM compound,5.414 nanomoles formed per hour per milligram cell protein
same,"cholesteryl [14C] oleate formed, Repeat 3",NPC1 [1]; 0.03 uM compound,4.815 nanomoles formed per hour per milligram cell protein
same,"cholesteryl [14C] oleate formed, Repeat 4",NPC1 [1]; 0.03 uM compound,5.633 nanomoles formed per hour per milligram cell protein
same,"cholesteryl [14C] oleate formed, Repeat 1",NPC1 [1]; 0.06 uM compound,4.957 nanomoles formed per hour per milligram cell protein
same,"cholesteryl [14C] oleate formed, Repeat 2",NPC1 [1]; 0.06 uM compound,4.372 nanomoles formed per hour per milligram cell protein
same,"cholesteryl [14C] oleate formed, Repeat 3",NPC1 [1]; 0.06 uM compound,4.6935 nanomoles formed per hour per milligram cell protein
same,"cholesteryl [14C] oleate formed, Repeat 4",NPC1 [1]; 0.06 uM compound,4.899 nanomoles formed per hour per milligram cell protein
same,"cholesteryl [14C] oleate formed, Repeat 1",NPC1 [1]; 0.1 uM compound,4.223 nanomoles formed per hour per milligram cell protein
same,"cholesteryl [14C] oleate formed, Repeat 2",NPC1 [1]; 0.1 uM compound,3.931 nanomoles formed per hour per milligram cell protein
same,"cholesteryl [14C] oleate formed, Repeat 3",NPC1 [1]; 0.1 uM compound,3.618 nanomoles formed per hour per milligram cell protein
same,"cholesteryl [14C] oleate formed, Repeat 4",NPC1 [1]; 0.1 uM compound,3.755 nanomoles formed per hour per milligram cell protein
same,"cholesteryl [14C] oleate formed, Repeat 1",NPC1 [1]; 0.3 uM compound,1.696 nanomoles formed per hour per milligram cell protein
same,"cholesteryl [14C] oleate formed, Repeat 2",NPC1 [1]; 0.3 uM compound,0.8471 nanomoles formed per hour per milligram cell protein
same,"cholesteryl [14C] oleate formed, Repeat 3",NPC1 [1]; 0.3 uM compound,0.9245 nanomoles formed per hour per milligram cell protein
same,"cholesteryl [14C] oleate formed, Repeat 4",NPC1 [1]; 0.3 uM compound,0.77 nanomoles formed per hour per milligram cell protein
same,"cholesteryl [14C] oleate formed, Repeat 1",NPC1 [1]; 1 uM compound,0.3184 nanomoles formed per hour per milligram cell protein
same,"cholesteryl [14C] oleate formed, Repeat 2",NPC1 [1]; 1 uM compound,0.2982 nanomoles formed per hour per milligram cell protein
same,"cholesteryl [14C] oleate formed, Repeat 3",NPC1 [1]; 1 uM compound,0.3042 nanomoles formed per hour per milligram cell protein
same,"cholesteryl [14C] oleate formed, Repeat 4",NPC1 [1]; 1 uM compound,0.4741 nanomoles formed per hour per milligram cell protein
same,IC50,"NPC1 [1]; read-out: IC50 (concentration at which each compound inhibited cholesterol esterification by 50%), 10% FCS, 4 h then 2 h [14C] oleate pulse",175 nM
CCN(CC)CCO[C@H]1CC[C@@]2(C)C(=CC[C@@H]3[C@@H]2CC[C@]2(C)C(=O)CC[C@@H]32)C1 [U18666A],inhibition of P-X cross-linking to NPC1,NPC1 [2],inhibited
same,inhibition of cholesterol export from lysosomes,[3],inhibit cholesterol export from lysosomes
